Test results: the supplement of paper PMC13380429

Columns and labels:
Conditions in all cases: 72 h
[1] = tested on: Caco-2; assay: cell viability relative to DMSO; higher = less toxic
[2] = tested on: Calu-3; assay: as above
[3] = tested on: HepG2; assay: as above
[4] = tested on: U2OS; assay: as above
[5] = tested on: Vero E6; assay: as above
[6] = tested on: Caco-2; assay: relative viability EC50 (midpoint between 100% and the lowest measured viability); higher = less toxic
[7] = tested on: Calu-3; assay: as above
[8] = tested on: HepG2; assay: as above
[9] = tested on: U2OS; assay: as above
[10] = tested on: Vero E6; assay: as above
[11] = tested on: Caco-2; assay: drug sensitivity score (DSS) for viability; higher = more toxic; extreme values may be limits of the assay
[12] = tested on: Calu-3; assay: as above
[13] = tested on: HepG2; assay: as above
[14] = tested on: U2OS; assay: as above
[15] = tested on: Vero E6; assay: as above

| SMILES | cell viability ([1]; 1 nM) | cell viability ([1]; 10 nM) | cell viability ([1]; 100 nM) | cell viability ([1]; 1000 nM) | cell viability ([1]; 10000 nM) | cell viability ([2]; 1 nM) | cell viability ([2]; 10 nM) | cell viability ([2]; 100 nM) | cell viability ([2]; 1000 nM) | cell viability ([2]; 10000 nM) | cell viability ([3]; 1 nM) | cell viability ([3]; 10 nM) | cell viability ([3]; 100 nM) | cell viability ([3]; 1000 nM) | cell viability ([3]; 10000 nM) | cell viability ([4]; 1 nM) | cell viability ([4]; 10 nM) | cell viability ([4]; 100 nM) | cell viability ([4]; 1000 nM) | cell viability ([4]; 10000 nM) | cell viability ([5]; 1 nM) | cell viability ([5]; 10 nM) | cell viability ([5]; 100 nM) | cell viability ([5]; 1000 nM) | cell viability ([5]; 10000 nM) | relative viability EC50 [6] | relative viability EC50 [7] | relative viability EC50 [8] | relative viability EC50 [9] | relative viability EC50 [10] | drug sensitivity score [11] | drug sensitivity score [12] | drug sensitivity score [13] | drug sensitivity score [14] | drug sensitivity score [15] |
| --- | --- | --- | --- | --- | --- | --- | --- | --- | --- | --- | --- | --- | --- | --- | --- | --- | --- | --- | --- | --- | --- | --- | --- | --- | --- | --- | --- | --- | --- | --- | --- | --- | --- | --- | --- |
| NS(=O)(=O)c1cc2c(cc1Cl)N=CNS2(=O)=O [chlorothiazide] | 92.4% | 99.8% | 95.3% | 91% | 86.6% | 85.8% | 88.9% | 103% | 102% | 96.6% | 102% | 102% | 95.9% | 97.8% | 99% | 98.1% | 102% | 96.6% | 106% | 99% | 97.8% | 103% | 96.3% | 96.8% | 96.7% | > 10 µM | > 10 µM | > 10 µM | > 10 µM | > 10 µM | 0.1 | 0 | 0 | 0 | 0 |
| CN(CCOP(=O)(O)O)C(=N)N [creatinol-phosphate] | 102% | 99.5% | 93.6% | 101% | 90.7% | 104% | 94.2% | 105% | 92.8% | 98.5% | 88.7% | 94.6% | 101% | 105% | 92.4% | 92.5% | 95.6% | 94.7% | 93.3% | 93.4% | 103% | 97.8% | 98.4% | 104% | 97.8% | > 10 µM | > 10 µM | > 10 µM | > 10 µM | > 10 µM | 0 | 0 | 0 | 0 | 0 |
| Cc1c(C(N)=O)cc([N+](=O)[O-])cc1[N+](=O)[O-] [dinitolmide] | 101% | 97.6% | 102% | 95.1% | 105% | 99.4% | 105% | 101% | 100% | 103% | 104% | 104% | 106% | 99.7% | 102% | 111% | 105% | 105% | 93.5% | 92.3% | 102% | 101% | 98.8% | 98.3% | 97.4% | > 10 µM | > 10 µM | > 10 µM | > 10 µM | > 10 µM | 0 | 0 | 0 | 0 | 0 |
| CC1(C)O[C@@H]2[C@@H](CO[C@@]3(COS(N)(=O)=O)OC(C)(C)O[C@@H]23)O1 [topiramate] | 93.2% | 83.1% | 92.2% | 112% | 98.7% | 110% | 96.6% | 94.8% | 95.2% | 103% | 108% | 96.9% | 91.8% | 95.9% | 94.9% | 98.7% | 94.5% | 98.1% | 105% | 108% | 89.5% | 98.3% | 95.6% | 97.7% | 107% | > 10 µM | > 10 µM | > 10 µM | > 10 µM | > 10 µM | 0 | 0 | 0 | 0 | 0 |
| COc1ccccc1N1CCN(CCn2c(=O)[nH]c3c([nH]c4ccccc43)c2=O)CC1 [3-MPPI] | 96% | 93.8% | 99.4% | 96.1% | 103% | 99.6% | 105% | 104% | 98.8% | 106% | 102% | 111% | 106% | 102% | 92.2% | 103% | 98% | 102% | 99.4% | 101% | 104% | 104% | 102% | 99.4% | 103% | > 10 µM | > 10 µM | > 10 µM | > 10 µM | > 10 µM | 0 | 0 | 0 | 0 | 0 |
| CC(C)C[C@@H](N)C1(c2ccc(Cl)cc2)CCC1 | 101% | 103% | 108% | 96% | 90.3% | 96% | 104% | 109% | 89.9% | 102% | 104% | 99.9% | 110% | 103% | 104% | 98.9% | 98.3% | 94.2% | 99% | 94.1% | 106% | 101% | 100% | 98.8% | 105% | > 10 µM | > 10 µM | > 10 µM | > 10 µM | > 10 µM | 0 | 0 | 0 | 0 | 0 |
| N=C(N)NCCN1CCCCCCC1 [guanethidine] | 92.3% | 96.6% | 91% | 91.8% | 101% | 104% | 102% | 99.6% | 95% | 97.3% | 99.3% | 102% | 96.4% | 106% | 93.6% | 102% | 96.6% | 99.7% | 98.8% | 103% | 105% | 97.2% | 95.2% | 109% | 101% | > 10 µM | > 10 µM | > 10 µM | > 10 µM | > 10 µM | 0 | 0 | 0 | 0 | 0 |
| C/C=C/C=C/C(=O)O [sorbic-acid] | 103% | 93.3% | 106% | 99% | 114% | 106% | 99.8% | 84.4% | 91.3% | 110% | 87.3% | 97.6% | 90.7% | 107% | 108% | 99.5% | 98.4% | 94.2% | 102% | 102% | 95.4% | 103% | 96.5% | 94.5% | 102% | > 10 µM | > 10 µM | > 10 µM | > 10 µM | > 10 µM | 0 | 0 | 0 | 0 | 0 |
| CCCCCCCCCCCCCCCCCCOP(=O)([O-])OC1CC[N+](C)(C)CC1 [perifosine] | 96.4% | 90.9% | 100% | 96.5% | 106% | 106% | 98% | 106% | 86.8% | 95.4% | 96.2% | 96% | 97.7% | 106% | 112% | 98.7% | 95.2% | 103% | 95% | 99.2% | 92.7% | 98.9% | 93.6% | 96.5% | 101% | > 10 µM | > 10 µM | > 10 µM | > 10 µM | > 10 µM | 0 | 0.8 | 0 | 0 | 0 |
| Cc1cc(Nc2nc(N[C@@H](C)c3ncc(F)cn3)ncc2Cl)[nH]n1 [AZD1480] | 93.2% | 102% | 95.5% | 102% | 84.2% | 106% | 91.6% | 99.7% | 96.6% | 90.8% | 98.6% | 101% | 96.5% | 87.9% | 89.4% | 99.7% | 102% | 102% | 101% | 97% | 94.3% | 96.2% | 95.9% | 100% | 97.9% | > 10 µM | > 10 µM | > 10 µM | > 10 µM | > 10 µM | 0.2 | 0 | 0.7 | 0 | 0 |
| CC(C)(CO)Cc1cc(C(C)(C)C)c(O)c(C(C)(C)C)c1 [CGP-7930] | 96.8% | 98.5% | 101% | 99.7% | 96% | 93.6% | 99.2% | 98.3% | 105% | 102% | 109% | 107% | 91.1% | 108% | 101% | 98.2% | 101% | 103% | 101% | 104% | 108% | 109% | 95.6% | 108% | 102% | > 10 µM | > 10 µM | > 10 µM | > 10 µM | > 10 µM | 0 | 0 | 0 | 0 | 0 |
| Cc1c(F)cccc1NC(=O)Nc1ccc(Cl)c(S(=O)(=O)[C@H]2CCCNC2)c1O [danirixin] | 99.3% | 104% | 93.4% | 99.4% | 95.9% | 84.6% | 88.3% | 91.8% | 93.1% | 95.6% | 94.8% | 93.1% | 103% | 94.7% | 106% | 99% | 104% | 95.4% | 98.8% | 98.8% | 106% | 106% | 106% | 98.2% | 100% | > 10 µM | > 10 µM | > 10 µM | > 10 µM | > 10 µM | 0 | 0 | 0 | 0 | 0 |
| O=C(Oc1ccc(Br)cc1)N1CCN2CCC1CC2 | 101% | 105% | 94.2% | 98% | 102% | 97.5% | 101% | 101% | 100% | 95.7% | 97.7% | 101% | 97% | 103% | 108% | 99% | 102% | 104% | 99% | 98.4% | 94.2% | 101% | 93.5% | 95.5% | 104% | > 10 µM | > 10 µM | > 10 µM | > 10 µM | > 10 µM | 0 | 0 | 0 | 0 | 0 |
| O=C(O)CC1CC(c2ccccc2)=NO1 (stereo not given) [VGX-1027] | 98.2% | 106% | 99.6% | 96.1% | 104% | 91.7% | 101% | 91.8% | 93.7% | 103% | 98.1% | 93.8% | 101% | 104% | 115% | 101% | 94.8% | 97.1% | 103% | 103% | 94.1% | 94.7% | 97.6% | 95% | 102% | > 10 µM | > 10 µM | > 10 µM | > 10 µM | > 10 µM | 0 | 0 | 0 | 0 | 0 |
